According to patent US7851599B2 (Philogen S.p.A., priority 2006, dated 2010):

What was measured:
[1] = system: human pancreatic cancer cell line DanG; experiment: Orthotopic DanG pancreatic cancer xenograft, tumor volume; type: in vivo, nude mice
[2] = biological target: ED-B domain of fibronectin (Homo sapiens, UniProt P02751); settings: cited from earlier work
ED-B domain of fibronectin, sequence (P02751 1271-1359 limits assumed): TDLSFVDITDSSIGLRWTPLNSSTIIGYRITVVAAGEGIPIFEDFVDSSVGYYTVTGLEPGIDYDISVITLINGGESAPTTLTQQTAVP

Compound	mice with complete remission ([1]; gemcitabine 250 mg/kg BW days 7, 14, L19IL2 4.29 MIU/kg BW days 8-12, 15-19, or both)	pancreatic tumor volume, % compared to control mice ([1]; gemcitabine i.p. 250 mg/kg BW once weekly (day 7 and 14), day 21) [%]	binding affinity for ED-B [2]
Nc1ccn([C@@H]2O[C@H](CO)[C@@H](O)C2(F)F)c(=O)n1 [gemcitabine, 2′-deoxy-2′,2′-difluorocytidine]	no complete remission	28	–
scFv L19: human homodimeric single chain Fv antibody fragment L19 specific for the ED-B domain of fibronectin	–	–	picomolar
